Measurements: US20120270778A1, “Compositions and Methods for Non-Invasive Treatment of Chronic Complications of Diabetes” (Aegis Therapeutics LLC, priority 2009, published 2012)

Assays:
[1] = test system: rat model of type 1 diabetes; conditions: cited from earlier work
type 1 diabetes = conditions: human; cited from earlier work
[2] = test system: patients with early-stage type 1 diabetic neuropathy; conditions: treatment for 6 months; cited from earlier work
insulin = insulin (Homo sapiens, UniProt P01308); conditions: cited from earlier work
islet cell = conditions: cited from earlier work
normal and diabetic mice = conditions: repressed by insulin; cited from earlier work
[3] = test system: diabetes-induced hyperfiltration; conditions: in vivo; cited from earlier work
[4] = Serum insulin and C-peptide levels after nasal administration of combined formulations to rats; assay type: in vivo
Protocol: Test System—Sprague Dawley rats, females; 325 grams are used throughout this study. Rats are anesthetized by isoflurane/O2 mixture. To a first and second group of three rats each is administered vehicle containing C-peptide concentration of 1 and 10 mg/mL as described in Example 1 to which is added 0.1% benzallconium chloride as a preservative. To a third and fourth group of 3 rats each is administered vehicle containing C-peptide concentration of 1 and 10 mg/mL as described above to which is added 45 mg/mL methyl-beta-cyclodextrin (Sigma-Aldrich). […]
Analysis Procedure—The serum was frozen at approximately −70° C. in pre-labeled, plastic tubes, and tightly capped, and stored at approximately −70° C. until ready for testing. […]
Solutions prepared as described in Example 3 were administered nasally to rats and tested as described in Example 2 except with the addition that serum human insulin determinations were made using the Human Insulin ELISA Kit™ from Diagnostic Systems Laboratories, Inc, Webster, Tex. The relative molar ratios of insulin to C-peptide in serum for each formulation was calculated by taking the ratio of the insulin concentration to the C-peptide concentration at a fixed time point. In Table 2 below, ratios of the concentrations of insulin and C-peptide for concentrations measured at two time points, namely 20 min. and 40 min. post nasal instillation. […]

[5] = in vivo, inhaled or intranasal; cited from earlier work

Chain of insulin (P01308 25-54 limits assumed, species assumed): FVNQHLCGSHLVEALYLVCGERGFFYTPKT
Chain of insulin (P01308 90-110 limits assumed, species assumed): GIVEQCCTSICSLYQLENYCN

Substance	effect on neuropathy [1]	effect on diabetes-induced renal and nerve dysfunction (type 1 diabetes)	effect on sensory nerve function [2]	effect on insulin aggregation (insulin)	effect on islet cell apoptosis (islet cell)	antithrombotic effects (normal and diabetic mice)	effect on diabetes-induced hyperfiltration, renal hypertrophy and albuminuria [3]	rate of absorption relative to insulin [4]	systemic bioavailability by intranasal route [5]
Proinsulin C-Peptide (55-89), human	improves neuropathy	amelioration of diabetes-induced renal and nerve dysfunction	improved sensory nerve function	elicit disaggregation of insulin	decreases islet cell apoptosis	exerts antithrombotic effects	reduce diabetes-induced hyperfiltration, as well as renal hypertrophy and albuminuria	slightly, but not significantly, more rapidly than insulin	
EVARQ							reduce diabetes-induced hyperfiltration, as well as renal hypertrophy and albuminuria		
salmon calcitonin									3%
